Measurements as given in ChEMBL document CHEMBL3745608, “Structure-based design, synthesis, and biological evaluation of Leu-Arg dipeptide analogs as novel hepsin inhibitors” (Bioorg Med Chem Lett, 2016).
Where a SMILES comes first, the peptide text is derived from it.

Key:
Serine protease hepsin = Serine protease hepsin (Homo sapiens, UniProt P05981); experiment: Inhibition of human recombinant hepsin using Boc-QAR-AMC as substrate preincubated for 30 mins followed by substrate addition measured for 15 to 120 mins by plate reader analysis
Chain of Serine protease hepsin (P05981 1-162 limits assumed): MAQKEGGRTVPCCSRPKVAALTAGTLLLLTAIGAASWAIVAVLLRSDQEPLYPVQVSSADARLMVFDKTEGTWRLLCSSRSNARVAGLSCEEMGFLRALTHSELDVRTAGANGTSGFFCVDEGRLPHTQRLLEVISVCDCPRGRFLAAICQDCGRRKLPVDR
Chain of Serine protease hepsin (P05981 163-417 limits assumed): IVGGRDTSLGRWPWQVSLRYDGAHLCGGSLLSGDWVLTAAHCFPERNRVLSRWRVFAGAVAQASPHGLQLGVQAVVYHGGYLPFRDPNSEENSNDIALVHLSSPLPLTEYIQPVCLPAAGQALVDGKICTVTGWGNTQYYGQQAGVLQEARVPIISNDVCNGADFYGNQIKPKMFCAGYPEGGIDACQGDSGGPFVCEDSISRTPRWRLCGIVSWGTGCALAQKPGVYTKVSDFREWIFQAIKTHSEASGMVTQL

[1] = target: T1, Suppressor of tumorigenicity 14 protein homolog (Mus musculus, UniProt P56677); experiment: Inhibition of mouse recombinant matriptase using Boc-QAR-AMC as substrate preincubated for 30 mins followed by substrate addition measured for 15 to 120 mins by plate reader analysis
T1 sequence (P56677 whole entry): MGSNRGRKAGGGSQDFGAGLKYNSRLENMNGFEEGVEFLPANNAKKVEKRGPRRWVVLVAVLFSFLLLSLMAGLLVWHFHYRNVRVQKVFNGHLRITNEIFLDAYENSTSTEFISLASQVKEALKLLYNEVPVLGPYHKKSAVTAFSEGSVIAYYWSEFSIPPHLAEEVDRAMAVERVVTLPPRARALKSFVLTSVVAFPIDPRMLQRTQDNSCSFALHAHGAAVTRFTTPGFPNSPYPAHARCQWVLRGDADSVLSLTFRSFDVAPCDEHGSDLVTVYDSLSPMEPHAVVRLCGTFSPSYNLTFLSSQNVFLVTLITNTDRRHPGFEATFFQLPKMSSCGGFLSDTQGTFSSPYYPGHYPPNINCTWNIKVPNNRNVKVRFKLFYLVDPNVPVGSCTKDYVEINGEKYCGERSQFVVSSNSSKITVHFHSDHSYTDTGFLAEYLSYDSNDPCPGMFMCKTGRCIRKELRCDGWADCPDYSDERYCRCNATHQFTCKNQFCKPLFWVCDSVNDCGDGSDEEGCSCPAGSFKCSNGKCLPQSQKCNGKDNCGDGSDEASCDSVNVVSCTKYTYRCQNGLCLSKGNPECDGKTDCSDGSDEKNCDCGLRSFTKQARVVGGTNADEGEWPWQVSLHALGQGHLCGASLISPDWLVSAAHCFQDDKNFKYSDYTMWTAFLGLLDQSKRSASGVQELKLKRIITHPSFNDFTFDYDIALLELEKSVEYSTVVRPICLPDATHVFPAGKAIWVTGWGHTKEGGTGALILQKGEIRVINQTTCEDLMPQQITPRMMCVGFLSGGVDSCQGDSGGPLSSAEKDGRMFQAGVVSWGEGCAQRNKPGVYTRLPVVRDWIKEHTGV

[2] = Selectivity ratio of Ki for mouse recombinant matriptase to Ki for human recombinant hepsin

SMILES	Ki (Serine protease hepsin)	Ki [1]	Ratio Ki [2]
CC(=O)N[C@@H](CC(C)C)C(=O)N[C@@H](CCCNC(=N)N)C(=O)c1ccccc1	> 10000 nM	> 10000 nM	–
CC(=O)N[C@@H](CCCCN)C(=O)N[C@@H](CCC(N)=O)C(=O)N[C@@H](CC(C)C)C(=O)N[C@H](CCCNC(=N)N)C(=O)c1nccs1	0.83 nM	8 nM	–
CC(=O)N[C@@H](CCC(N)=O)C(=O)N[C@@H](CC(C)C)C(=O)N[C@H](CCCNC(=N)N)C(=O)c1nccs1	2.88 nM	11.1 nM	8
CC(=O)N[C@@H](CC(C)C)C(=O)N[C@H](CCCNC(=N)N)C(=O)c1ccccc1	> 10000 nM	> 10000 nM	–
CC(=O)N[C@@H](CC(C)C)C(=O)N[C@H](CCCNC(=N)N)C(=O)c1nc2ccccc2s1	2.91 nM	177 nM	> 60
CC(=O)N[C@@H](CC(C)C)C(=O)N[C@H](CCCNC(=N)N)C(=O)c1nccs1	21.5 nM	246 nM	8
CC(=O)N[C@@H](CCCCN)C(=O)N[C@@H](CCC(N)=O)C(=O)N[C@@H](CC(C)C)C(=O)N[C@@H](CCCNC(=N)N)C(=O)c1nccs1	1.45 nM	10.4 nM	–
CC(=O)N[C@@H](CC(C)C)C(=O)N[C@@H](CCCNC(=N)N)C(=O)c1nccs1	22.4 nM	334 nM	8
CC(=O)N[C@@H](CCCCN)C(=O)N[C@@H](CCC(N)=O)C(=O)N[C@@H](CC(C)C)C(=O)O (Ac-Lys-Gln-Leu-OH)	> 10000 nM	> 10000 nM	–
CC(=O)N[C@@H](CC(C)C)C(=O)N[C@@H](CCCN=C(N)N)C(=O)c1nc2ccccc2s1	3.38 nM	227 nM	> 60
CC(=O)N[C@@H](CCC(N)=O)C(=O)N[C@@H](CC(C)C)C(=O)N[C@@H](CCCNC(=N)N)C(=O)c1nccs1	1.04 nM	11.3 nM	8
CC(=O)N[C@@H](CCCNC(=N)N)C(=O)c1nccs1	> 10000 nM	> 10000 nM	–
